Laboratory results reported in PubChem BioAssay AID256 (DTP/NCI, 2004).
Several values for one entry are separate records, joined by “and”; a condition that tells them apart may be missing. Equal entries are not always repeated. Toxic doses and inconclusive results are not listed. Non-standard residues stand in square brackets, D forms with d. Residues, ends and D or L forms follow the SMILES beside them. ξ: configuration not given here. *: point of attachment. ξL = CC(C)CC(N)C(=O)O; ClAc = O=C(CCl)*

System: CD2F1 mice, L1210 leukemia ip, survival T/C
Assay: NCI In Vivo Anticancer Drug Screen. Data for tumor model L1210 Leukemia (intraperitoneal) in CD2F1 (CDF1) mice
Settings: higher = longer survival
In short: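 In this screen, transplantable tumors were grown in mice given either the compound or its vehicle. Results were expressed as the treated measurement relative to the control measurement.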

[1] = endpoint: mean survival time, dose: 100.0 mg/kg/injection, schedule: Q01DX009 (ip), vehicle: saline with Tween-80
[2] = endpoint: mean survival time, dose: 200.0 mg/kg/injection, schedule: Q01DX009 (ip), vehicle: saline with Tween-80
[3] = endpoint: mean survival time, dose: 100.0 mg/kg/injection, schedule: Q04DX003 (ip), vehicle: saline with Tween-80
[4] = endpoint: mean survival time, dose: 200.0 mg/kg/injection, schedule: Q04DX003 (ip), vehicle: saline with Tween-80
[5] = endpoint: mean survival time, dose: 400.0 mg/kg/injection, schedule: Q01DX009 (ip), vehicle: saline with Tween-80
[6] = endpoint: mean survival time, dose: 25.0 mg/kg/injection, schedule: Q01DX009 (ip), vehicle: saline with Tween-80
[7] = endpoint: mean survival time, dose: 50.0 mg/kg/injection, schedule: Q01DX009 (ip), vehicle: saline with Tween-80
[8] = endpoint: mean survival time, dose: 100.0 mg/kg/injection, schedule: Q04DX002 (ip), vehicle: saline with Tween-80
[9] = endpoint: mean survival time, dose: 200.0 mg/kg/injection, schedule: Q04DX002 (ip), vehicle: saline with Tween-80
[10] = endpoint: mean survival time, dose: 400.0 mg/kg/injection, schedule: Q04DX002 (ip), vehicle: saline with Tween-80

With `CO[C@@H]1[C@H](O)CC[C@]2(CO2)[C@H]1[C@@]1(C)O[C@@H]1CC=C(C)C` the T/C (endpoint: median survival time, dose: 1.56 mg/kg/injection, schedule: Q01DX009 (ip), vehicle: saline with Tween-80) was 101 % of control and 103 % of control, the T/C (endpoint: median survival time, dose: 3.12 mg/kg/injection, schedule: Q01DX009 (ip), vehicle: saline with Tween-80) was 93 % of control and 102 % of control and the T/C (endpoint: median survival time, dose: 6.25 mg/kg/injection, schedule: Q01DX009 (ip), vehicle: saline with Tween-80) was 97 % of control and 105 % of control. The T/C (endpoint: median survival time, dose: 12.5 mg/kg/injection, schedule: Q01DX009 (ip), vehicle: saline with Tween-80) was 101 % of control and 102 % of control, the T/C (endpoint: median survival time, dose: 25.0 mg/kg/injection, schedule: Q01DX009 (ip), vehicle: saline with Tween-80) was 101 % of control and 102 % of control and the T/C (endpoint: median survival time, dose: 50.0 mg/kg/injection, schedule: Q01DX009 (ip), vehicle: saline with Tween-80) was 97 % of control and 103 % of control.
In the case of `O=C(c1ccccc1)C(c1ccccc1)(c1ccccc1)c1ccccc1`, the T/C (endpoint: mean survival time, dose: 100.0 mg/kg/injection, schedule: Q01DX001 (ip), vehicle: saline with Tween-80) is reported as 93 % of control, the T/C (endpoint: mean survival time, dose: 200.0 mg/kg/injection, schedule: Q01DX001 (ip), vehicle: saline with Tween-80) is reported as 89 % of control and the T/C (endpoint: mean survival time, dose: 400.0 mg/kg/injection, schedule: Q01DX001 (ip), vehicle: saline with Tween-80) is reported as 89 % of control.
`C/C=C/C(Cc1ccc2ccccc2c1)(C(=O)OCC)C(=O)OCC` was tested, and the T/C (endpoint: mean survival time, dose: 50.0 mg/kg/injection, schedule: Q01DX009 (ip), vehicle: Klucel (hydroxypropylcellulose) (HPC)) was 91 % of control, the T/C (endpoint: mean survival time, dose: 100.0 mg/kg/injection, schedule: Q01DX009 (ip), vehicle: Klucel (hydroxypropylcellulose) (HPC)) was 88 % of control and the T/C (endpoint: mean survival time, dose: 200.0 mg/kg/injection, schedule: Q01DX009 (ip), vehicle: Klucel (hydroxypropylcellulose) (HPC)) was 94 % of control.
For `CCNCc1ccc2c(c1)OCO2`, the T/C (endpoint: mean survival time, dose: 75.0 mg/kg/injection, schedule: Q01DX001 (ip), vehicle: saline) was 101 % of control, the T/C (endpoint: mean survival time, dose: 150.0 mg/kg/injection, schedule: Q01DX001 (ip), vehicle: saline) was 101 % of control and the T/C (endpoint: mean survival time, dose: 300.0 mg/kg/injection, schedule: Q01DX001 (ip), vehicle: saline) was 103 % of control.
For `NC(=O)/C=C/C(N)=O`, the T/C [1] was 98 % of control and the T/C [2] was 98 % of control.
In the case of `Clc1ccc(CSCc2ccc(Cl)cc2Cl)c(Cl)c1`, the T/C [1] is reported as 96 % of control, the T/C [3] is reported as 100 % of control and the T/C [2] is reported as 100 % of control. For the same compound, the T/C [4] was 104 % of control, the T/C [5] was 98 % of control and the T/C (endpoint: mean survival time, dose: 400.0 mg/kg/injection, schedule: Q04DX003 (ip), vehicle: saline with Tween-80) was 100 % of control.
`COc1ccc(OC)c(NC(=O)NNC(=O)CNC(=O)Nc2cccc(C)n2)c1` was tested, and the T/C [2] was 92 % of control and the T/C [5] was 88 % of control.
`CS(=O)(=O)OC1C(OC(=O)OCc2ccccc2)C2COC(O2)C1OC(=O)OCc1ccccc1` (stereo unspecified) was tested, and the T/C [1] was 92 % of control, the T/C [2] was 92 % of control and the T/C [5] was 89 % of control.
With `Clc1ccc(-c2nc3ccccc3s2)cc1` the T/C (endpoint: mean survival time, dose: 100.0 mg/kg/injection, schedule: Q01DX001 (ip), vehicle: Klucel (hydroxypropylcellulose) (HPC)) was 100 % of control, the T/C (endpoint: mean survival time, dose: 200.0 mg/kg/injection, schedule: Q01DX001 (ip), vehicle: Klucel (hydroxypropylcellulose) (HPC)) was 95 % of control and the T/C (endpoint: mean survival time, dose: 400.0 mg/kg/injection, schedule: Q01DX001 (ip), vehicle: Klucel (hydroxypropylcellulose) (HPC)) was 100 % of control.
In the case of `COC1CCC(/C=C(\C#N)C2CCC([N+](=O)[O-])CC2)CC1` (stereo unspecified), the T/C [6] is reported as 86 % of control, the T/C [7] is reported as 88 % of control and the T/C [5] is reported as 94 % of control.
For `O=c1ccnc(SCc2ccccc2)[nH]1`, the T/C [8] was 105 % of control, the T/C [9] was 101 % of control and the T/C [10] was 94 % of control.
For `O=S(=O)(O)c1cc2cc(S(=O)(=O)O)c(O)cc2cc1O.[NH-]C1CCCCC1[NH-].[Pt+2]`, the T/C (endpoint: median survival time, dose: 3.12 mg/kg/injection, schedule: Q04DX003 (ip), vehicle: saline) was 114 % of control and 118 % of control, the T/C (endpoint: median survival time, dose: 6.25 mg/kg/injection, schedule: Q04DX003 (ip), vehicle: saline) was 118 % of control and 110 % of control and the T/C (endpoint: median survival time, dose: 12.5 mg/kg/injection, schedule: Q04DX003 (ip), vehicle: saline) was 113 % of control and 112 % of control. For the same compound, the T/C (endpoint: median survival time, dose: 50.0 mg/kg/injection, schedule: Q04DX003 (ip), vehicle: saline) was 158 % of control, the T/C (endpoint: median survival time, dose: 100.0 mg/kg/injection, schedule: Q04DX003 (ip), vehicle: saline) was 154 % of control and 207 % of control and the T/C (endpoint: median survival time, dose: 200.0 mg/kg/injection, schedule: Q04DX003 (ip), vehicle: saline) was 229 % of control and 365 % of control.
With `O=C1CC(c2ccccc2)C(c2ccccc2)=C1Cl` (stereo unspecified) the T/C [1] was 94 % of control, the T/C [2] was 98 % of control and the T/C [5] was 96 % of control.
In the case of `C=NCC#N`, the T/C [3] is reported as 106 % of control and the T/C [4] is reported as 101 % of control.
For `CC(C)(C)OC(=O)NC(C(=O)O)C1=CCC=CC1` (stereo unspecified), the T/C (endpoint: mean survival time, dose: 25.0 mg/kg/injection, schedule: Q01DX009 (ip), vehicle: other) was 100 % of control, the T/C (endpoint: mean survival time, dose: 50.0 mg/kg/injection, schedule: Q01DX009 (ip), vehicle: other) was 96 % of control and the T/C (endpoint: mean survival time, dose: 50.0 mg/kg/injection, schedule: Q04DX002 (ip), vehicle: other) was 101 % of control. The T/C (endpoint: mean survival time, dose: 50.0 mg/kg/injection, schedule: Q04DX003 (ip), vehicle: other) was 103 % of control, the T/C (endpoint: mean survival time, dose: 100.0 mg/kg/injection, schedule: Q01DX001 (ip), vehicle: other) was 106 % of control and the T/C (endpoint: mean survival time, dose: 100.0 mg/kg/injection, schedule: Q01DX009 (ip), vehicle: other) was 91 % of control. The T/C (endpoint: mean survival time, dose: 100.0 mg/kg/injection, schedule: Q04DX002 (ip), vehicle: other) was 101 % of control, the T/C (endpoint: mean survival time, dose: 100.0 mg/kg/injection, schedule: Q04DX003 (ip), vehicle: other) was 106 % of control and the T/C (endpoint: mean survival time, dose: 200.0 mg/kg/injection, schedule: Q01DX001 (ip), vehicle: other) was 99 % of control. For the same compound, the T/C (endpoint: mean survival time, dose: 200.0 mg/kg/injection, schedule: Q01DX009 (ip), vehicle: other) was 91 % of control, the T/C (endpoint: mean survival time, dose: 200.0 mg/kg/injection, schedule: Q04DX002 (ip), vehicle: other) was 94 % of control and the T/C (endpoint: mean survival time, dose: 200.0 mg/kg/injection, schedule: Q04DX003 (ip), vehicle: other) was 97 % of control. For the same compound, the T/C (endpoint: mean survival time, dose: 400.0 mg/kg/injection, schedule: Q01DX001 (ip), vehicle: other) was 99 % of control, the T/C (endpoint: mean survival time, dose: 400.0 mg/kg/injection, schedule: Q04DX002 (ip), vehicle: other) was 101 % of control and the T/C (endpoint: mean survival time, dose: 400.0 mg/kg/injection, schedule: Q04DX003 (ip), vehicle: other) was 97 % of control. For the same compound, the T/C (endpoint: mean survival time, dose: 600.0 mg/kg/injection, schedule: Q01DX001 (ip), vehicle: other) was 96 % of control.
`COC(C)C(O)(c1ccccc1)c1ccccc1` (stereo unspecified) was tested, and the T/C [7] was 101 % of control, the T/C [1] was 101 % of control and the T/C [2] was 96 % of control.
In the case of `CCOC(=O)C1(C(C)CC)SCCCS1` (stereo unspecified), the T/C [8] is reported as 97 % of control, the T/C [9] is reported as 97 % of control and the T/C [10] is reported as 94 % of control.
For `COC1C(C)OC(OC2CC(C)(O)C(C(=O)O)c3cc4c(c(O)c32)C(=O)c2c(O)cc3c(c2C4=O)OC2OC3(C)C(O)C(N(C)C)C2O)C(OC)C1(C)OC` (stereo unspecified), the T/C (endpoint: mean survival time, dose: 5.0 mg/kg/injection, schedule: Q01DX009 (ip), vehicle: other) was 113 % of control, the T/C (endpoint: mean survival time, dose: 10.0 mg/kg/injection, schedule: Q01DX009 (ip), vehicle: other) was 107 % of control and the T/C (endpoint: mean survival time, dose: 10.0 mg/kg/injection, schedule: Q04DX003 (ip), vehicle: other) was 113 % of control. For the same compound, the T/C (endpoint: mean survival time, dose: 20.0 mg/kg/injection, schedule: Q01DX009 (ip), vehicle: other) was 118 % of control, the T/C (endpoint: mean survival time, dose: 20.0 mg/kg/injection, schedule: Q04DX003 (ip), vehicle: other) was 113 % of control and the T/C (endpoint: mean survival time, dose: 40.0 mg/kg/injection, schedule: Q04DX003 (ip), vehicle: other) was 117 % of control. For the same compound, the T/C (endpoint: mean survival time, dose: 80.0 mg/kg/injection, schedule: Q04DX003 (ip), vehicle: other) was 115 % of control.
With `O=C(O)/C(=C\c1ccccc1)c1ccccc1` the T/C [1] was 90 % of control, the T/C [2] was 101 % of control and the T/C [5] was 95 % of control.
With `CC(C)CC(NC(=O)CCl)C(=O)NCC(=O)O` (stereo unspecified) (ClAc-[ξL]-Gly-OH) the T/C [6] was 96 % of control, the T/C [7] was 96 % of control and the T/C [1] was 94 % of control.
With `CCCC(=O)Nc1ncnc2c1nc(SCc1ccccc1)n2C1OC2COP(=O)(O)OC2C1OC(=O)CCC` (stereo unspecified) the T/C (endpoint: mean survival time, dose: 6.25 mg/kg/injection, schedule: Q01DX005 (ip), vehicle: water) was 101 % of control, the T/C (endpoint: mean survival time, dose: 12.5 mg/kg/injection, schedule: Q01DX005 (ip), vehicle: water) was 93 % of control and the T/C (endpoint: mean survival time, dose: 25.0 mg/kg/injection, schedule: Q01DX005 (ip), vehicle: water) was 93 % of control. For the same compound, the T/C (endpoint: mean survival time, dose: 50.0 mg/kg/injection, schedule: Q01DX005 (ip), vehicle: water) was 101 % of control and the T/C (endpoint: mean survival time, dose: 100.0 mg/kg/injection, schedule: Q01DX005 (ip), vehicle: water) was 101 % of control.
`CCCC[N+](CCCC)(CCCC)CCCC.[Cl-].[Cl-].[Cl-].[Cl-].[Cl-].[Cl-].[Cl-].[Cl-].[Re].[Re]` was tested, and the T/C [8] was 112 % of control, the T/C [9] was 112 % of control and the T/C [10] was 116 % of control.
